Reference: US7045528B2, “Benzofused heterozryl amide derivatives of thienopyridines useful as therapeutic agents, pharmaceutical compositions including the same, and methods for their use” (Agouron Pharmaceuticals, Inc., priority 2002, dated 2006)

Tests used:
PDGFRβ = target: T1, PDGFRβ (Homo sapiens, UniProt P09619); experiment: PAE-PDGFRβ phosphorylation in PAE-PDGFRB cells assay; type: cell-based; conditions: PAE cells overexpressing human PDGFRβ, PDGF-BB stimulated; read-out: PAE PDGFR autophos IC50 (nM) AVG
T1 construct: expressed in transfected cells; host or cells: porcine aorta endothelial (PAE)-PDGFRβ cells
Summary of the method: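 PAE cells overexpressing human PDGFRβ, serum-starved 16 h (0.1% FBS), were given compound for 1 h at 37 °C (0.5% DMSO) and then stimulated with 1 μg/mL PDGF-BB plus 2 mM Na3VO4 for 8 min. Receptor autophosphorylation was read by capture ELISA (HRP-PY20, TMB, 450 nm); IC50 from 4-parameter fit.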

[1] = target: T2, unphosphorylated VEGF-R2Δ50 (FLVK) (Homo sapiens, UniProt P35968, DEL940-989/E990V); experiment: VEGF-R2 coupled spectrophotometric assay, unphosphorylated VEGF-R2Δ50 (FLVK); type: biochemical; conditions: unphosphorylated VEGF-R2Δ50; for inhibition at 0.05 µM: 50 nM compound, read-out: FLVK (% inh @ 50 nM)
T2 construct: VEGF-R2Δ50 contains residues 806–939 and 990–1171; made in house; host or cells: baculovirus/insect cell system
Summary of the method: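 Baculovirus-expressed human VEGF-R2Δ50 (kinase insert partly deleted, E990V), unphosphorylated form; ADP production coupled via PK/LDH to NADH oxidation, read at 340 nm. 20 mM poly(E4Y1), 3 mM ATP, 60 mM MgCl2, 2 mM MnCl2, 200 mM HEPES pH 7.5; 5–40 nM enzyme. Ki from Morrison tight-binding fit.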

Huvec = experiment: bFGF Huvec proliferation; type: cell-based, human; conditions: Homo sapiens, HUVEC
[2] = test system: human umbilical vein endothelial cells (HUVEC); experiment: HUVEC+VEGF proliferation assay; type: cell-based; conditions: Homo sapiens, HUVEC; VEGF 6 ng/mL, 72 h, MTT
Summary of the method: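 Exponentially growing passage 3–4 HUVEC were starved 24 h in F12K + 1% FBS, given compound (0.1% final DMSO) 1 h before 6 ng/mL final VEGF, then cultured 72 h. Proliferation was read as MTT dye reduction (4 h exposure), absorbance at 595 nm.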

T2 sequence (P35968 with tags, fused parts or gaps DEL940-989/E990V limits assumed): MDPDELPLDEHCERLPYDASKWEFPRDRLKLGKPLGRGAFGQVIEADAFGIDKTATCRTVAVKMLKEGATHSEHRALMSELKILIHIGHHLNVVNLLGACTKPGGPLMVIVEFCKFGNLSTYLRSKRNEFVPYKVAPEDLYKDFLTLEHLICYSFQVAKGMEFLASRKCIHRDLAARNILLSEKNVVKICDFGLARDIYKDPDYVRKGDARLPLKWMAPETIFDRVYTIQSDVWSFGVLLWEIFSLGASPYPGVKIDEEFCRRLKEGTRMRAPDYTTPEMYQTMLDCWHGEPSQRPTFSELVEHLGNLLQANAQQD
T1 sequence (P09619 33-1106): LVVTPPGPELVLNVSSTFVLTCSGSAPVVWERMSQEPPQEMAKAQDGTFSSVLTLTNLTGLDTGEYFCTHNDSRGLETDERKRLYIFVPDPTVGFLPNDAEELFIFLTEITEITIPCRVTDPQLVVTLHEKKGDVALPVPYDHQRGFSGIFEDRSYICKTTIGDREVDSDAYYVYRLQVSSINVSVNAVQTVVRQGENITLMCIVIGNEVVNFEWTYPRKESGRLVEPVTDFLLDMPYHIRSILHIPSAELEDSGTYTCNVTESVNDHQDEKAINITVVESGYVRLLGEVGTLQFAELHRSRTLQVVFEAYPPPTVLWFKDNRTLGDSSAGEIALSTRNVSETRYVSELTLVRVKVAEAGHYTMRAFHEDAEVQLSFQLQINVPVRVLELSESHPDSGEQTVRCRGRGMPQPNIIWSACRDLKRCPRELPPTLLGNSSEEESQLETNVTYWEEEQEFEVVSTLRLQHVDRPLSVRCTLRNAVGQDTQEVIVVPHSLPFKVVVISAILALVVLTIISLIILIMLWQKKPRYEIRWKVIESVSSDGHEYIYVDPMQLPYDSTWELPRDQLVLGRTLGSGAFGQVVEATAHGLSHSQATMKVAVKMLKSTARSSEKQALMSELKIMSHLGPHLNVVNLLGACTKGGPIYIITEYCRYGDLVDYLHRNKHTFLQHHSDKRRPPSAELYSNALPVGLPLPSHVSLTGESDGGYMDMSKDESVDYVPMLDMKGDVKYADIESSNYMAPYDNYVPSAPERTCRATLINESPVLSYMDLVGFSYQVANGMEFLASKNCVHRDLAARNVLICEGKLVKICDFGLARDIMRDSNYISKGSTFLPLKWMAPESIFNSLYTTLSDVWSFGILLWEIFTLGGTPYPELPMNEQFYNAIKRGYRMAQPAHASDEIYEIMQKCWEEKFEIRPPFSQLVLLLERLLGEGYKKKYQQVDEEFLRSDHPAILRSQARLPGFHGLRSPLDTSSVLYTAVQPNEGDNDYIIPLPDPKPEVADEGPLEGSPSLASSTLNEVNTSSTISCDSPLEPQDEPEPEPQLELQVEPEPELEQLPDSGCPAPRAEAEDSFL

Row | Compound | IC50 (PDGFRβ) [nM] | inhibition at 0.05 µM [1] [%] | Ki [1] [nM] | IC50 (Huvec) [nM] | IC50 [2] [nM]
1 | COC[C@@H]1CCCN1C(=O)c1cc2nccc(Oc3ccc4c(C(=O)NC5CC5)c(C)sc4c3)c2s1 [Example 120, 6-[(2-{[(2S)-2-(Methoxymethyl)pyrrolidin-1-yl]carbonyl}thieno[3,2-b]pyridin-7-yl)oxy]-2-methylbenzo[b]thiophene-3-carboxylic acid cyclopropylamide] | 405 | 93 | 0.6 | 489 | 0.491
2 | CCc1oc2cc(Oc3ccnc4cc(-c5nccn5C)sc34)ccc2c1C(=O)NC [Example 94, 2-Ethyl-6[2-(1-methyl-1H-imidazol-2-yl)-thieno[3,2-b]pyridin-7-yloxy]-benzofuran-3-carboxylic acid methylamide] | 112 | 81 | 1.45 | 251 | 0.7
3 | Cc1sc2cc(Oc3ccnc4cc(-c5nc(CO)cs5)sc34)ccc2c1C(=O)NCC1CC1 [Example 130] | 335 | 95 | 0.39 | 100 | 0.49
4 | Cc1sc2cc(Oc3ccnc4cc(C(=O)N5CCC5)sc34)ccc2c1C(=O)NCC1CC1 [Example 131, 6-{[2-(Azetidin-1-ylcarbonyl)thieno[3,2-b]pyridin-7-yl]oxy}-2-methylbenzo[b]thiophene-3-carboxylic acid (cyclopropylmethyl)amide] | 97 | 96 | 0.2 | 260 | 1.89
5 | Cc1c(C(=O)NC2CC2)c2ccc(Oc3ccnc4cc(C(=O)N5CCC[C@H]5CO)sc34)cc2n1C [Example 54, N-Cyclopropyl-6-[(2-{[(2S)-2-(hydroxymethyl)pyrrolidin-1-yl]carbonyl}thieno[3,2-b]pyridin-7-yl)oxy]-1,2-dimethyl-1H-indole-3-carboxamide] | 133 | 89 | 1.71 | 10000 | 1.8
6 | CO[C@@H]1CCN(C(=O)c2cc3nccc(Oc4ccc5c(C(=O)NCCCO)c(C)sc5c4)c3s2)C1 [Example 124, 6-[(2-{[(3R)-3-Methoxypyrrolidin-1-yl]carbonyl}thieno[3,2-b]pyridin-7-yl)oxy]-2-methylbenzo[b]thiophene-3-carboxylic acid 3-hydroxypropylamide] | 376 | 82 | 2.19 | 8240 | 1.6
7 | CCCNC(=O)c1c(C)n(C)c2cc(Oc3ccnc4cc(C(=O)N5CCC[C@H]5CO)sc34)ccc12 [Example 58, 6-(2-[2-(S)Hydroxymethyl-pyrrolidine-1-carbonyl]thieno[3,2-b]pyridin-7-yloxy)-1,2-dimethyl-1H-indole-3-carboxylic acid propylamide] | 124 | 55 | 7.59 | 7830 | 3.65
8 | Cc1sc2cc(Oc3ccnc4cc(-c5nccn5C)sc34)ccc2c1C(=O)NCC1CC1 [Example 119, 2-Methyl-6-{[2-(1-methyl-1-imidazol-2-yl)thieno[3,2-b]pyridin-7-yl]oxy}benzo[b]thiophene-3-carboxylic acid (cyclopropylmethyl)amide] | 90.6 | 95 | 0.375 | 1830 | 1.46
9 | Cc1sc2cc(Oc3ccnc4cc(C(=O)N5CCC5)sc34)ccc2c1C(=O)NC1CC1 [Example 127, 6-{[2-(Azetidin-1-ylcarbonyl)thieno[3,2-b]pyridin-7-yl]oxy}2-methylbenzo[b]thiophene-3-carboxylic acid cyclopropylamide] | 102 | 100 | 0.2 | 41 | 1
10 | Cc1sc2cc(Oc3ccnc4cc(C(=O)N5CC[C@@H](O)C5)sc34)ccc2c1C(=O)NCC1CC1 [Example 126, 6[(2-{[(3R)-3-Hydroxypyrrolidin-1-yl]carbonyl}thieno[3,2-b]pyridin-7-yl)oxy]-2-methylbenzo[b]thiophene-3-carboxylic acid (cyclopropylmethyl)amide] | 336 | 96 | 0.59 | 5660 | 10
11 | Cc1c(C(=O)NCCCO)c2ccc(Oc3ccnc4cc(C(=O)N5CCC5)sc34)cc2n1C [Example 63, 6-[2-(Azetidine-1-carbonyl)-thieno[3,2-b]pyridin-7-yloxy}-1,2-dimethyl-1H-indole-3-carboxylic acid (3-hydroxy-propyl)-amide] | 84 | 67 | 9.33 | 10000 | 10

These reach a lower IC50 (PDGFRβ). Values come first.

Row | IC50 (PDGFRβ) [nM] | inhibition at 0.05 µM [1] [%] | Ki [1] [nM] | Compound | IC50 (Huvec) [nM] | IC50 [2] [nM]
12 | 16.5 | 94 | 0.356 | CO[C@@H]1CCN(C(=O)c2cc3nccc(Oc4ccc5c(C(=O)NCC6CC6)c(C)oc5c4)c3s2)C1 [Example 91, 6-[2-(q-Methoxy-pyrrolidine-1-carbonyl)-thieno[3,2-b]pyridin-7-yloxy]-2-methyl-benzofuran-3-carboxylic acid cyclopropylmethyl-amide] | 250 | 0.168
13 | 17.8 | 96 | 0.615 | CO[C@@H]1CCN(C(=O)c2cc3nccc(Oc4ccc5c(C(=O)NCC(C)C)c(C)oc5c4)c3s2)C1 [Example 87, 6-[2-(3-Methoxy-pyrrolidine-1-carbonyl)-thieno[3,2-b]pyridin-7-yloxy]-2-methyl-benzofuran-3-carboxylic acid isobutyl amide] | 6040 | 1.25
14 | 6.52 | 95 | 0.3 | Cc1c(C(=O)Nc2ccccn2)c2ccc(Oc3ccnc4cc(-c5nccn5C)sc34)cc2n1C [Example 69, 1,2-Dimethyl-6-[2-(1-methyl-1H-imidazol-2-yl)-thieno[3,2-b]pyridin-7-yloxy]-1H-indole-3-carboxylic acid pyridin-2-ylamide] | 4310 | 0.57
15 | 7 | 100 | 0.2 | CNC(=O)c1c(C)oc2cc(Oc3ccnc4cc(-c5nc(CO)cs5)sc34)ccc12 [Example 81, 6-[2-(4-Hydroxymethyl-thiazol-2-yl)-thieno[3,2-b]pyridin-7-yloxy]-2-methyl-benzofuran-3-carboxylic acid methylamide] | 26 | 0.09
16 | 74 | 63 | 6 | CNC(=O)c1c(C)n(C)c2cc(Oc3ccnc4cc(C(=O)N5CC(O)C5)sc34)ccc12 [Example 30, 6-[2-(3-Hydroxy-azetidine-1-carbonyl)-thieno[3,2-b]pyridin-7-yloxy]-1,2-dimethyl-1H-indole-3-carboxylic acid methylamide] | 10000 | 33.6
17 | 59 | 65 | 7.97 | Cc1c(C(=O)NCCCO)c2ccc(Oc3ccnc4cc(C(=O)N5CCCC5)sc34)cc2n1C [Example 65, 1,2-Dimethyl-6-[2-(pyrrolidine-1-carbonyl)-thieno[3,2-b]pyridin-7-yloxy]-1H-indole-3-carboxylic acid (3-hydroxy-propyl)-amide] | 10000 | 10
18 | 33 | 93 | 0.739 | CO[C@@H]1CCN(C(=O)c2cc3nccc(Oc4ccc5c(C(=O)NCCN6CCOCC6)c(C)oc5c4)c3s2)C1 [Example 90, 6-[2-(3-Methoxy-pyrrolidine-1-carbonyl)-thieno[3,2-b]pyridin-7-yloxy]-2-methyl-benzofuran-3-carboxylic acid (2-morpholin-4-yl-ethyl)-amide] | 745 | 2.14
19 | 4.4 | 100 | 0.2 | CCCNC(=O)c1c(C)oc2cc(Oc3ccnc4cc(C(=O)N5CC[C@@H](OC)C5)sc34)ccc12 [Example 92, 6-[2-(3-Methoxy-pyrrolidine-1-carbonyl)-thieno[3,2-b]pyridin-7-yloxy]-2-methyl-benzofuran-3-carboxylic acid propyl amide] | 13 | 0.18
20 | 53.1 | 89 | 0.884 | COC[C@@H]1CCCN1C(=O)c1cc2nccc(Oc3ccc4c(C(=O)NC(C)C)c(C)oc4c3)c2s1 [Example 82, 6-(2-[(S)-2-(methoxymethyl)pyrrolidine-1-carbonyl]thieno[3,2-b]pyridin-7-yloxy)-2-methyl-benzofuran-3-carboxylic acid isopropylamide] | 2060 | 2.28
21 | 12 | 70 | 4.08 | CNC(=O)c1c(C)n(C)c2cc(Oc3ccnc4cc(C(=O)N5CCC5)sc34)ccc12 [Example 25] | 7460 | 0.45
